# Where a SMILES comes first, the peptide text is derived from it. Where no end group is shown, it is not given here. [ ]: non-standard residue; d: D form. The star is where a group is joined. Phe(4-N(CH2CH2Cl)2) = N[C@@H](Cc1ccc(N(CCCl)CCCl)cc1)C(=O)O; 5FAM = O=C1OC2(c3ccc(O)cc3Oc3cc(O)ccc32)c2ccc(C(=O)*)cc21
# Columns and labels:
# 9L-Luc gliosarcoma cells = experiment: In vitro cytotoxicity (BrdU and bioluminescence assays); type: cell-based; conditions: 1-100 μM, 1-hour exposure, viability at 24 hours
# Protocol: In vitro cytotoxicity studies and uptake analysis. […] 9L luciferase-expressing (9L-Luc) gliosarcoma cells (provided by Dr. Brian Ross University of Michigan, Ann Arbor) were incubated in a 96 well plate and grown to 95% confluence. 9L-Luc cells were cultured in Delbecco's Modified Eagle Medium (DMEM) with fetal bovine serum (10%), streptomycin ([…]) and penicillin (100 U/ml) and 1-glutamine 2 mM in an atmosphere 95/5% O2 and CO2 with 100% humidity. They were exposed to 1, 10, and 100 μM of the compound for 1-hour and assessed for viability at 24 hours. Data for all three assays was normalized to the survival of untreated cells. Assays were run in triplicate and fluorescence values were averaged for each treatment. The 3% hydrogen peroxide treated cells provided positive controls.
# 9L cells = conditions: one hour exposure, MTT and BrdU assays after 7 days
# Protocol: Cytotoxicity Study. 9L cells were grown to confluence in 96-well plates. Individual wells were exposed to no treatment or increasing concentrations of melphalan, TAT monomer, melphalan-conjugated TAT monomer (obtained from a supplier) or melphalan-conjugated TAT dimer (obtained from a supplier). Cells were incubated under these conditions for one hour. Growth factors were then reintroduced and the cells were grown for a week with standard periodic care. After 7 days, MTT and BrdU assays were used to assess cell viability. All tests were done in quadruplicate and data normalized to the untreated group. […] IV injection of the […]
# 9L-gliosarcoma cells = experiment: Membrane fluidity with beta-cyclodextrin cholesterol depletion; type: cell-based; conditions: 4° C. and 37° C., FIG. 33C
# Protocol: 9L-gliosarcoma cells were grown to confluence in T-75 in recommended culture media. Membrane fluidity was determined by using commercially available “Gene Marker” kit. Fluorescein tagged TAT was used for determining uptake of the cell penetrating peptide. To alter membrane fluidity TAT uptake was determined at different temperatures of 4° C., 15° C. 25° C., 35° C. and 37° C.
# The role of cholesterol in affecting membrane fluidity was then assessed. Cholesterol content of the membrane was measured using the commercially available Fillipin-III assay. Beta-cyclodextrin was used to deplete membrane cholesterol. The effect of cyclodextrin on TAT uptake of 100 μL at 0.1 mg/mL for 10 minutes at different temperatures was then assessed. Fluorescence was assessed by flow cytometry and confocal imaging was performed as needed.
# 9L glioma tumor = experiment: In vivo uptake of TAT dimer versus monomer by IA-TCH (MSI and confocal imaging); set-up: species or system rat; conditions: dimer 0.25 mg, monomer 0.125 mg, five rats each
# Protocol: An additional experiment was performed to assess the in vivo uptake of fluorescein-labeled TAT dimer by IA-TCH. About 14 days after 9L glioma tumor implantation, rats were anesthetized and prepared for TAT dimer delivery experiments. TAT dimer was conjugated with fluorescein such that its concentrations in post mortem samples could be determined immediately by multispectral imaging and confocal imaging. TAT dimer (0.25 mg) and monomer (0.125 mg) were tested using IA-TCH delivery both containing equal amounts of fluorescein were evaluated. […] Animals were sacrificed 15 minutes after TAT injection. Brain tissue was harvested.
# 9L glioma = experiment: Survival after IA-TCH delivery of melphalan or melphalan-conjugated TAT; type: in vivo, rat; conditions: for Bleeding events: IA-TCH
# Protocol: Thirteen 9L glioma-implanted anesthetized rats were intubated and ventilated. The carotid artery of each rat was exposed and cannulated but the ICA was not isolated to minimize surgical trauma. The rats were subjected to delivery of melphalan with adenosine, esmolol and cold saline via IA-TCH. Six rats received 0.25 mg of melphalan, three rats received 0.5 mg melphalan and one rat received 1 mg of melphalan. Remaining rats were either treated with saline or left untreated. After the IA-TCH injection, rats were allowed to recover and sacrificed when pre-determined criteria were met.
# A similar procedure was performed on seven 9L glioma-implanted rats using melphalan-conjugated TAT monomer at a dose of 1 mg (0.16 mg melphalan content). However, the ICA was isolated with an aneurysm clip. Survival of the rats was monitored and images of the brains of the rats were obtained by MRI. The same procedure was performed using 5 rats with melphalan-conjugated TAT dimer at a dose of 1 mg (0.08 mg melphalan content).
# [1] = Delivery of cell-penetrating peptides to the brain of healthy rats, confocal microscopy; type: in vivo, rat; conditions: rat, in vivo
# Excerpt: Animal preparation, IA-TCH injection, and brain tumor implantation. Animal protocols were approved by the Columbia University Institutional Animal Care and Use Committee (IACUC). Studies were primarily conducted on Sprague-Dawley rats weighing 250 to 300 grams. In the case of electron multiplying charge-coupled device imaging studies, Fisher 344 rats implanted with 9L brain tumors were utilized. The surgical preparation including anesthesia, carotid and femoral cannulation, cerebral blood flow and vital sign monitoring, as well as in vivo fluorescence imaging have been previously described in detail.
# IA injections of cell-penetrating peptides (CPPs) were made during TCH as 65 μL pulses totaling 1 ml in volume. TCH was produced by a bolus injection of adenosine, esmolol, and cold saline. Animals were allowed to hemodynamically recover from TCH and euthanized 10 minutes after injection. Uptake of CPPs was assessed with a fluorescence camera and with confocal fluorescence microscopy.
# Cell-penetrating peptides. Two experimental cell-penetrating peptides were tested: 1. octaarginine, also called (Arg)8 or R-8 (SEQ ID NO: 13) and 2. trans-activator of transcription or TAT (Lifetien Inc.). The 14 amino acid peptide sequence for TAT is […]COOH (SEQ ID NO: 11). Both cell-penetrating peptides (CPPs) were labeled with fluorescein so that their distribution could be identified by multispectral imaging and with fluorescence microscopy of the frozen brain sections.
# Fluorescence and electron multiplying charge-coupled device imaging.
compound,measurement,setting,value
"COc1cccc2c1C(=O)c1c(O)c3c(c(O)c1C2=O)C[C@@](O)(C(=O)CO)C[C@@H]3O[C@H]1C[C@H](N)[C@H](O)[C@H](C)O1 [Dox, Doxorubicin]",Relative toxicity (cellular viability),9L-Luc gliosarcoma cells,highest toxicity
N=C(N)NCCC[C@H](NC(=O)CN)C(=O)N[C@@H](CCCCN)C(=O)N[C@@H](CCCCN)C(=O)N[C@@H](CCCNC(=N)N)C(=O)N[C@@H](CCCNC(=N)N)C(=O)N[C@@H](CCC(N)=O)C(=O)N[C@@H](CCCNC(=N)N)C(=O)N[C@@H](CCCNC(=N)N)C(=O)N[C@@H](CCCNC(=N)N)C(=O)N1CCC[C@H]1C(=O)N1CCC[C@H]1C(=O)N[C@@H](CCC(N)=O)C(=O)N[C@@H](CCC(N)=O)C(=O)O [TAT monomer],Relative cytotoxicity (cell viability),9L cells,cytotoxicity increases from TAT monomer to melphalan-conjugated TAT monomer to melphalan-conjugated TAT dimer to melphalan alone
OC[C@H]1O[C@@H]2O[C@H]3[C@H](O)[C@@H](O)[C@@H](O[C@H]4[C@H](O)[C@@H](O)[C@@H](O[C@H]5[C@H](O)[C@@H](O)[C@@H](O[C@H]6[C@H](O)[C@@H](O)[C@@H](O[C@H]7[C@H](O)[C@@H](O)[C@@H](O[C@H]8[C@H](O)[C@@H](O)[C@@H](O[C@H]1[C@H](O)[C@H]2O)O[C@@H]8CO)O[C@@H]7CO)O[C@@H]6CO)O[C@@H]5CO)O[C@@H]4CO)O[C@@H]3CO [beta-cyclodextrin],Effect on membrane fluidity,9L-gliosarcoma cells,increased fluidity at higher temperatures (37° C.) than at lower temperature (4° C.) in a dose-dependent manner
"N=C(N)NCCC[C@H](NC(=O)CNC(=O)[C@H](CCC(N)=O)NC(=O)[C@H](CCC(N)=O)NC(=O)[C@@H]1CCCN1C(=O)[C@@H]1CCCN1C(=O)[C@H](CCCNC(=N)N)NC(=O)[C@H](CCCNC(=N)N)NC(=O)[C@H](CCCNC(=N)N)NC(=O)[C@H](CCC(N)=O)NC(=O)[C@H](CCCNC(=N)N)NC(=O)[C@H](CCCNC(=N)N)NC(=O)[C@H](CCCCN)NC(=O)[C@H](CCCCN)NC(=O)[C@H](CCCNC(=N)N)NC(=O)CNC(=O)c1ccc2c(c1)C(=O)OC21c2ccc(O)cc2Oc2cc(O)ccc21)C(=O)N[C@@H](CCCCN)C(=O)N[C@@H](CCCCN)C(=O)N[C@@H](CCCNC(=N)N)C(=O)N[C@@H](CCCNC(=N)N)C(=O)N[C@@H](CCC(N)=O)C(=O)N[C@@H](CCCNC(=N)N)C(=O)N[C@@H](CCCNC(=N)N)C(=O)N[C@@H](CCCNC(=N)N)C(=O)N1CCC[C@H]1C(=O)N1CCC[C@H]1C(=O)N[C@@H](CCC(N)=O)C(=O)N[C@@H](CCC(N)=O)C(=O)O [fluorescein-labeled TAT dimer, 5-FAM-GRKKRRQRRR PPQQGRKKRR QRRRPPQQ-COOH] (5FAM-GRKKRRQRRRPPQQGRKKRRQRRRPPQQ-OH)",Tumor selective delivery,9L glioma tumor,able to achieve tumor selective drug delivery
"N[C@@H](Cc1ccc(N(CCCl)CCCl)cc1)C(=O)O [melphalan, Melphalan, reference compound]",Relative cytotoxicity (cell viability),9L cells,cytotoxicity increases from TAT monomer to melphalan-conjugated TAT monomer to melphalan-conjugated TAT dimer to melphalan alone
same,Dose group with peak survival,"9L glioma; 0.25, 0.5, 1 mg IA-TCH",peak survival was found in the 0.25 mg melphalan group
same,Bleeding events,9L glioma,significant bleeding
same,Survival,"9L glioma; melphalan 0.25, 0.5 or 1 mg IA-TCH, p=0.07 versus controls",30 ± 8 days
N=C(N)NCCC[C@H](NC(=O)CNC(=O)[C@H](CCC(N)=O)NC(=O)[C@H](CCC(N)=O)NC(=O)[C@@H]1CCCN1C(=O)[C@@H]1CCCN1C(=O)[C@H](CCCNC(=N)N)NC(=O)[C@H](CCCNC(=N)N)NC(=O)[C@H](CCCNC(=N)N)NC(=O)[C@H](CCC(N)=O)NC(=O)[C@H](CCCNC(=N)N)NC(=O)[C@H](CCCNC(=N)N)NC(=O)[C@H](CCCCN)NC(=O)[C@H](CCCCN)NC(=O)[C@H](CCCNC(=N)N)NC(=O)CNC(=O)[C@@H](N)Cc1ccc(N(CCCl)CCCl)cc1)C(=O)N[C@@H](CCCCN)C(=O)N[C@@H](CCCCN)C(=O)N[C@@H](CCCNC(=N)N)C(=O)N[C@@H](CCCNC(=N)N)C(=O)N[C@@H](CCC(N)=O)C(=O)N[C@@H](CCCNC(=N)N)C(=O)N[C@@H](CCCNC(=N)N)C(=O)N[C@@H](CCCNC(=N)N)C(=O)N1CCC[C@H]1C(=O)N1CCC[C@H]1C(=O)N[C@@H](CCC(N)=O)C(=O)N[C@@H](CCC(N)=O)C(=O)O [melphalan-conjugated TAT dimer] (H-[Phe(4-N(CH2CH2Cl)2)]GRKKRRQRRRPPQQGRKKRRQRRRPPQQ-OH),Relative cytotoxicity (cell viability),9L cells,cytotoxicity increases from TAT monomer to melphalan-conjugated TAT monomer to melphalan-conjugated TAT dimer to melphalan alone
same,Bleeding events,9L glioma,No significant bleeding events
N=C(N)NCCC[C@H](NC(=O)CNC(=O)[C@@H](N)Cc1ccc(N(CCCl)CCCl)cc1)C(=O)N[C@@H](CCCCN)C(=O)N[C@@H](CCCCN)C(=O)N[C@@H](CCCNC(=N)N)C(=O)N[C@@H](CCCNC(=N)N)C(=O)N[C@@H](CCC(N)=O)C(=O)N[C@@H](CCCNC(=N)N)C(=O)N[C@@H](CCCNC(=N)N)C(=O)N[C@@H](CCCNC(=N)N)C(=O)N1CCC[C@H]1C(=O)N1CCC[C@H]1C(=O)N[C@@H](CCC(N)=O)C(=O)N[C@@H](CCC(N)=O)C(=O)O [melphalan-conjugated TAT monomer],Relative cytotoxicity (cell viability),9L cells,cytotoxicity increases from TAT monomer to melphalan-conjugated TAT monomer to melphalan-conjugated TAT dimer to melphalan alone
same,Tolerability,9L glioma; 1 mg IA-TCH,well tolerated
same,Bleeding events,9L glioma,Only one of seven animals showed some evidence of a tail bleed
"octaarginine (RRRRRRRR; also: FITC label, position not given here) [FITC labeled R8, reference compound]",Deposition by hemisphere,[1],detectable deposition preferentially to the hemisphere ipsilateral to carotid injection
same,Distribution in the brain (semi-quantitative),[1],more discrete and predominantly within vessel walls
